From ChEMBL document CHEMBL1667728, “Stachylines A-D from the sponge-derived fungus Stachylidium sp” (J Nat Prod, 2011)
Active and inactive are the calls of the source. No cut-off for these calls is given here.

Experiments:
[1] = test system: Human immunodeficiency virus; test: Antiviral activity against HIV; format: functional, organism-based
Influenza A virus = test: Antiviral activity against Influenza virus; format: functional, organism-based

SMILES	Activity [1]	Activity (Influenza A virus)
C=C(C)[C@H](O)COc1ccc(CC=NO)cc1 (mixture of isomers)	inactive	inactive
C=C(C)[C@H](O)COc1ccc(CCO)cc1	inactive	inactive
C=C(C)[C@H](O)COc1ccc(CC(=O)O)cc1	inactive	inactive
